Assay [1] has as its system HepG2 cells. As to the kind of experiment: Protection from alcohol induced toxicity, Sulphorhodamine B assay. The assay is classed as cell-based, Human. Particulars: alcohol 1000 mM, 72 hours. As for the experimental part:
(§1) Human HepG2 cells (procured from NCCS, Pune) were cultured in Dulbecco's Modified Eagle Medium (DMEM) supplemented with 10% fetal bovine serum (FBS), 40 μgml^−1 gentamycin at 37° C. in an atmosphere of 5% CO2. When the cells reached 80-90% confluence, they were trypsinized and plated at 5000 cells per well in a 96-well microplate. After 24 hours of seeding, alcohol at a concentration of 1000 mM was added along with different non cytotoxic concentrations of Calebin. Sulphorhodamine B assay was performed after 72 hours of treatment to determine the number of viable cells and percentage protection was calculated (FIG. 1).

Assay [2] concerns HepG2 cells. As to the kind of experiment: Protection from acetaminophen (paracetamol) induced toxicity, Sulphorhodamine B assay. The assay is classed as cell-based, Human. To be noted: 6.25 μM, acetaminophen 4 mM, 72 hours. How it is done: as §1, with “acetaminophen” for “alcohol”, “4” for “1000”, “2).” for “1).”
In assay [3] the test system is C2C12 myotubes (muscle cells). As to the kind of experiment: Glucose uptake assay (2-NBDG, flow cytometry) in muscle cells. The assay is classed as cell-based. To be noted: concentration printed as 3004, versus Metformin 200 μM. As for the experimental part: The skeletal muscle cell line C2C12 myoblasts (procured from ATCC) were maintained in DMEM supplemented with 10% Fetal Bovine Serum at 37° C. with 5% CO2. Twenty thousand cells per well were seeded in a 24 well plate. When the cells reached 80-90% confluence, differentiation was induced by replacing the growth medium with DMEM containing 1% horse serum. Experiments were performed in completely differentiated C2C12 myotubes after 4-5 days in differentiation medium. Cells were then treated with 0.5% BSA in low glucose media for 16 hours and washed with cold Krebs-Ringer phosphate buffer without glucose. Cells were then treated with different non cytotoxic concentrations of samples in low glucose DMEM media with or without insulin at a concentration of 0.1 μM for 30 minutes at 37° C. Cells were then washed with cold PBS and stained with 5 μM of a fluorescent D-glucose analog 2-[N-(7-nitrobenz-2-oxa-1,3-diazol-4-yl) amino]-2-deoxy-D-glucose (2-NBDG) for 15 minutes in dark followed by flow cytometric detection of fluorescence produced by the cells (FIG. 3)
In general terms: A flow cytometer gives signals particle by particle.

A further assay relates to adipocytes. Description: Glucose uptake assay in adipocytes. The assay is classed as cell-based. Particulars: concentration printed as 3004, versus Metformin 200 μM.

Take `COc1cc(/C=C/C(=O)COC(=O)/C=C/c2ccc(O)c(OC)c2)ccc1O` [Calebin A]: the “percentage protection from alcohol induced toxicity” value is recorded as “about 14%” in the assay with HepG2 cells [1] (6.25 μM); 30% with HepG2 cells [1] (12.5 μM); 23% in the assay on HepG2 cells [1] (progressively higher concentration, printed 6.25 μM). In addition, the “percentage protection against acetaminophen induced toxicity” value in the assay on HepG2 cells [2] was “about 15%”. Moreover, the “increase in glucose uptake” value (in assay [3]; in the assay on adipocytes) was “almost as effective as Metformin” throughout.

The values above are taken from US20190209509A1, “Hepatoprotective potential of Calebin A” (priority 2018, published 2019).
